# Read-outs that look alike come from different tables or passages of the source.
# What was measured:
# [1] = tested on: primary fibroblasts isolated from Bax/Bak double deficient mice; assay type: cell-based, mouse
# From the text: (§1) To study how the apoptotic machinery is regulated, mice deficient in both Bax and Bak have been produced. […] The characteristics of Bax/Bak double deficient mice are described in greater detail in our publications: Lindsten, T., Ross, A. J., King, A., Zong, W. X., Rathmell, J. C., Shiels, H. A., Ulrich, E., Waymire, K. G., Mahar, P., Frauwirth, K., Chen, Y., Wei, M., Eng, V. M., Adelman, D. M., Simon, M. C., Ma, A., Golden, J. A., Evan, G., Korsmeyer, S. J., MacGregor, G. R., and Thompson, C.
# [2] = tested on: wild type immortal cells; test: Death rate of wild type immortalized cells after death stimuli (DAPI staining, FACS); assay type: cell-based, mouse; conditions: 24 hours, DAPI 1 μg/ml, FIG. 3A
# Description: (§2) This example relates to determining that immortalized Bax/Bak doubly deficient cells are resistant to wide variety of death stimuli, including BH-3 only proapoptotic proteins. To test whether immortal Bax/Bak double deficient cells behave like primary Bax/Bak double deficient cells in resisting intrinsic cell death stimuli, wild type and Bax/Bak doubly deficient cells were treated with serum deprivation, etoposide (100 μM), staurosporin (4 μM), or brefeldin A (10 μg/ml). 24 hours later, cells were stained with DAPI (1 μg/ml), and death rate determined by FACS. Wild type immortal cells were killed by each of these death stimuli. This is consistent with the findings in the primary MEF cells.
# [3] = tested on: Bax/Bak doubly deficient cells; test: Death rate of Bax/Bak doubly deficient immortalized cells after death stimuli (DAPI staining, FACS); assay type: cell-based, mouse; conditions: Bax/Bak doubly deficient immortal cells, 24 hours, DAPI 1 μg/ml, FIG. 3A
# Description: as §2
# [4] = tested on: thymocytes isolated from the Bax/Bak double deficient mice
# From the text: as §1
# [5] = primary fibroblasts from Bax/Bak double deficient mice
compound,measurement,setting,value
C[C@H]1CCC/C=C/[C@@H]2C[C@H](O)C[C@H]2[C@H](O)/C=C/C(=O)O1 [brefeldin A],resistance to death stimulus,[1]; [5],resistant
same,cell death (death rate by FACS),[2]; brefeldin A 10 μg/ml,killed
same,cell death (death rate by FACS),[3]; brefeldin A 10 μg/ml,survived
COc1cc([C@@H]2c3cc4c(cc3[C@@H](O[C@@H]3O[C@@H]5CO[C@@H](C)O[C@H]5[C@H](O)[C@H]3O)[C@H]3COC(=O)[C@H]23)OCO4)cc(OC)c1O [etoposide],resistance to death stimulus,[1]; [5],resistant
same,cell death (death rate by FACS),[2]; etoposide 100 μM,killed
same,cell death (death rate by FACS),[3]; etoposide 100 μM,survived
same,resistance to induced cell death,[4],resistant
CN[C@@H]1C[C@H]2O[C@@](C)([C@@H]1OC)n1c3ccccc3c3c4c(c5c6ccccc6n2c5c31)C(=O)NC4 [staurosporin],resistance to death stimulus,[1],resistant
same,cell death (death rate by FACS),[2]; staurosporin 4 μM,killed
same,cell death (death rate by FACS),[3]; staurosporin 4 μM,survived
tharpsigargin,resistance to death stimulus,[1]; [5],resistant
tunicamycin,resistance to death stimulus,[1]; [5],resistant
